In ChEMBL document CHEMBL1135337, “Synthesis and DNA binding properties of saturated distamycin analogues” (Bioorg Med Chem Lett, 2002) one finds C50 data, which are given here for nine molecules.

This test deals with Nucleic Acid. The test can be described thus: Concentration required for 50% displacement of ethidium bromide from p[dA]p[dT] in a fluorescence intercalator displacement (FID) assay. It is filed as nucleic-acid assay.
`N=C(N)CCNC(=O)[C@H]1C[C@H](NC(=O)[C@H]2C[C@H](NC(=O)C3C[C@H](NC=O)CN3C(=O)OCc3ccccc3)CN2C(=O)OCc2ccccc2)CN1C(=O)OCc1ccccc1` (some centres undefined) had a C50 of 4.7 µM.
Molecule `N=C(N)CCNC(=O)[C@@H]1CC[C@@H](NC(=O)[C@@H]2CC[C@@H](NC(=O)[C@@H]3CC[C@@H](NC=O)C3)C2)C1` yielded a C50 of 7.91 µM.
Molecule `CN1C[C@@H](NC(=O)[C@H]2C[C@H](NC(=O)[C@H]3C[C@H](NC=O)CN3C)CN2C)C[C@@H]1C(=O)NCCC(=N)N` displayed a C50 of 6.7 µM.
`N=C(N)CCNC(=O)[C@H]1C[C@H](NC(=O)[C@H]2C[C@H](NC(=O)[C@H]3C[C@H](NC=O)CN3)CN2)CN1` gave a C50 of 6.37 µM.
As for `Cn1cc(NC(=O)c2cc(NC(=O)c3cc(NC=O)cn3C)cn2C)cc1C(=O)NCCC(=N)N`, the figure is 0.46 µM.
In the case of `N=C(N)CCNC(=O)[C@@H]1C[C@@H](NC(=O)[C@@H]2C[C@@H](NC(=O)[C@@H]3C[C@@H](NC=O)CN3)CN2)CN1`, the C50 was 8.55 µM.
As to `N=C(N)CCNC(=O)[C@@H]1C[C@@H](NC(=O)[C@@H]2C[C@@H](NC(=O)[C@@H]3C[C@@H](NC=O)CO3)CO2)CO1`, the C50 is 5.5 µM.
As for `N=C(N)CCNC(=O)[C@@H]1C[C@@H](NC(=O)[C@@H]2C[C@@H](NC(=O)[C@@H]3C[C@@H](NC=O)CN3C(=O)OCc3ccccc3)CN2C(=O)OCc2ccccc2)CN1C(=O)OCc1ccccc1`, the figure is 5.1 µM; as for `N=C(N)CCNC(=O)[C@H]1C[C@H](NC(=O)[C@H]2C[C@H](NC(=O)[C@H]3C[C@H](NC=O)CO3)CO2)CO1`, 5.4 µM.
